In series [1] the test system is fMLF/cytochalasin B (CB)-activated human neutrophils. In words: Superoxide anion generation (ferricytochrome c reduction) in fMLF/CB-activated human neutrophils. Particulars: Neutrophil, fMLF/CB stimulation, mean ± SEM (n = 3–5); for inhibition at 10 µM: 10 μM compound. In kind it is cell-based. How it is done: (§1) The study involving neutrophils was approved by the Institutional Review Board of Chang Gung Memorial Hospital under IRB number: 201902217A3 and was conducted in accordance with the principles of the Declaration of Helsinki. Healthy volunteers aged 20–35 years provided signed informed consents for blood collection. Isolation of neutrophils was done using dextran sedimentation, Ficoll-Hypaque density gradient centrifugation, and hypotonic haemolysis. For the anti-inflammatory studies, neutrophils were suspended in Hank’s balanced salt solution (HBSS) containing 1 mM Ca^2+ at a pH of 7.4[72].
The reduction of ferricytochrome c was utilised to measure the production of SO anions in activated human neutrophils. […] The neutrophils were then stimulated with fMLF (0.1 μM) and CB (1 μg/mL) for 13 min. […] LY294002 was used as a positive control.

Series [2] shares this test system. As to the kind of experiment: Elastase release in fMLF/CB-activated human neutrophils. In kind it is cell-based. Particulars: 10 μM compound; cytochalasin B only.
Series [3] has the same test system. The series is described as above. In kind it is cell-based. Particulars: Homo sapiens, Neutrophil, fMLF/CB stimulation, mean ± SEM (n = 3–5); for inhibition at 10 µM: 10 μM compound. Here is the method: as §1
Neutrophils were subsequently stimulated with fMLF (0.1 μM) and CB (0.5 μg/mL) for 13 min. […] LY294002 was used as a positive control.

Take `CC(C)(C)C(=O)/C=C/c1ccc([N+](=O)[O-])cc1` [Compound 6, (E)-4,4-Dimethyl-1-(4-nitrophenyl)pent-1-en-3-one]: the melting point lay in the range of 125 to 126 °C. In addition, in series [1], the inhibition at 10 µM is 23.3 ± 2.3%. Also, the “Induction of elastase release” value in series [2] was “induced elastase release”.

In turn, `COc1ccccc1C(=O)/C=C/c1ccc(Cl)cc1` [Compound 12a, (E)-3-(4-Chlorophenyl)-1-(2-methoxyphenyl)prop-2-en-1-one] gave a melting point of 76 to 78 °C. Further, in series [1], the inhibition at 10 µM worked out at 93.8 ± 3.02% and the IC50 was found to be 3.47 ± 0.6 µM. For the same molecule, in series [3], the inhibition at 10 µM is 62.2 ± 5.35% and it took 7.56 ± 1.05 µM to reach half-maximal inhibition (IC50).

Molecule `CC(C)(C)C(=O)/C=C/c1cc(F)cc(F)c1` [Compound 14, (E)-1-(3,5-Difluorophenyl)-4,4-dimethylpent-1-en-3-one] yielded a melting point of 71 to 72 °C. In addition, in series [1], the inhibition at 10 µM is 69.1 ± 6.71% and the IC50 was 6.52 ± 0.57 µM. In addition, in series [3], the inhibition at 10 µM came out at 12 ± 3.52%.

Molecule `CC(C)(C)C(=O)/C=C/c1ccc(Cl)cc1Cl` [Compound 15, (E)-1-(2,4-Dichlorophenyl)-4,4-dimethylpent-1-en-3-one] returned a melting point of 103 to 104 °C. In addition, the inhibition at 10 µM in series [1] was found to be 43 ± 2.78%. Besides, the “Induction of elastase release” value in series [2] is “induced elastase release”.

For the molecule `CC(C)(C)C(=O)/C=C/c1ccc(Cl)c(Cl)c1` [Compound 16, (E)-1-(3,4-Dichlorophenyl)-4,4-dimethylpent-1-en-3-one], the melting point was in the range of 94 to 96 °C. In series [1], the inhibition at 10 µM was 16.5 ± 4.67%. Further, the inhibition at 10 µM in series [3] stood at 10.2 ± 0.59%.

On to `CC(C)(C)C(=O)/C=C/c1ccc(Cl)c(F)c1` [Compound 17, (E)-1-(4-Chloro-3-fluorophenyl)-4,4-dimethylpent-1-en-3-one], for which the melting point fell in the range of 98.5 to 99.2 °C. Besides, the inhibition at 10 µM in series [1] amounted to 40.6 ± 3.89%. In addition, the inhibition at 10 µM in series [3] was 9.13 ± 1.78%.

Consider `COc1ccccc1C(=O)/C=C/c1ccccc1Cl` [Compound 17a, (E)-3-(2-Chlorophenyl)-1-(2-methoxyphenyl)prop-2-en-1-one], for which the melting point was 60 to 62 °C. Besides, in series [1], the inhibition at 10 µM is 99.05 ± 0.64% and the half-inhibitory concentration (IC50) turned out to be 2.95 ± 0.4 µM. In series [3], the inhibition at 10 µM is 75.8 ± 6.19% and the IC50 turned out to be 5.36 ± 0.67 µM.

In the case of `Cc1ccc(/C=C/C(=O)C(C)(C)C)cc1F` [Compound 18, (E)-1-(3-Fluoro-4-methylphenyl)-4,4-dimethylpent-1-en-3-one], the melting point is 70 to 71 °C. For the same molecule, the inhibition at 10 µM in series [1] was determined as 31.3 ± 4.71%. In addition, the inhibition at 10 µM in series [3] was found to be 7.77 ± 0.8%.

The molecule `COc1cccc(C(=O)/C=C/c2ccccc2Cl)c1` [Compound 18a, (E)-3-(2-Chlorophenyl)-1-(3-methoxyphenyl)prop-2-en-1-one] gave a melting point of 117 °C. Moreover, the inhibition at 10 µM in series [1] worked out at 47.6 ± 5.41%. In series [3], the inhibition at 10 µM was 31.3 ± 7.29%.

For the molecule `COc1ccc(/C=C/C(=O)C(C)(C)C)cc1F` [Compound 19, (E)-1-(3-Fluoro-4-methoxyphenyl)-4,4-dimethylpent-1-en-3-one], the melting point was found to be 84.6 °C. Also, the inhibition at 10 µM in series [1] stood at 2.87 ± 2.8%. For the same molecule, the inhibition at 10 µM in series [3] is 3.9 ± 1.68%.

Take `COc1ccc(/C=C/C(=O)c2ccccc2C)cc1F` [Compound 20, (E)-3-(3-Fluoro-4-methoxyphenyl)-1-(o-tolyl)prop-2-en-1-one]: the melting point fell in the range of 69 to 70 °C. The inhibition at 10 µM in series [1] worked out at 49.8 ± 5.82%. The inhibition at 10 µM in series [3] came out at 10.6 ± 2.28%.

Molecule `COc1ccc(C(=O)/C=C/c2ccc(OC)c(F)c2)c(OC)c1` [Compound 21, (E)-1-(2,4-Dimethoxyphenyl)-3-(3-fluoro-4-methoxyphenyl)prop-2-en-1-one] displayed a melting point of 85 to 86 °C. In addition, the inhibition at 10 µM in series [1] was found to be 17.1 ± 3.58%. In series [3], the inhibition at 10 µM was determined as 31.6 ± 5.88%.

Molecule `COc1ccccc1C(=O)/C=C/c1cccc(Cl)c1` [Compound 21a, (E)-3-(3-Chlorophenyl)-1-(2-methoxyphenyl)prop-2-en-1-one] returned a melting point of 96 to 98 °C. In series [1], the inhibition at 10 µM was found to be 89.9 ± 2.38% and the IC50 amounted to 3.79 ± 0.69 µM. Further, in series [3], the inhibition at 10 µM was 80.4 ± 4.44% and the midpoint of inhibition, the IC50, lay at 5.63 ± 0.51 µM.

Regarding `COc1ccc(/C=C/C(=O)C(C)(C)C)c(F)c1F` [Compound 22, (E)-1-(2,3-Difluoro-4-methoxyphenyl)-4,4-dimethylpent-1-en-3-one], the melting point lay in the range of 128 to 129 °C. The inhibition at 10 µM in series [1] is 31.4 ± 3.36%. The inhibition at 10 µM in series [3] is 4.84 ± 2.66%.

The molecule `COc1ccc(C(=O)/C=C/c2cccc(Cl)c2)cc1` [Compound 22a, (E)-3-(3-Chlorophenyl)-1-(4-methoxyphenyl)prop-2-en-1-one] had a melting point of 97 to 99 °C. Besides, in series [1], the inhibition at 10 µM turned out to be 65.2 ± 3.73% and the IC50 was found to be 6.6 ± 0.6 µM. For the same molecule, the inhibition at 10 µM in series [3] stood at 36.1 ± 6.48%.

Molecule `COc1cc(F)c(/C=C/C(=O)C(C)(C)C)cc1F` [Compound 23, (E)-1-(2,5-Difluoro-4-methoxyphenyl)-4,4-dimethylpent-1-en-3-one] gave a melting point of 131 to 132 °C. For the same molecule, the inhibition at 10 µM in series [1] is 8.1 ± 1.88%. For the same molecule, in series [3], the inhibition at 10 µM came to 2.5 ± 1.53%.

`O=C(/C=C/c1cc(F)cc(F)c1)c1ccc(Cl)cc1` [Compound 23a, (E)-1-(4-Chlorophenyl)-3-(3,5-difluorophenyl)prop-2-en-1-one] showed a melting point of 123.6 to 124 °C. Moreover, in series [1], the inhibition at 10 µM worked out at 96.04 ± 0.09% and half-maximal inhibition (IC50) was put at 2.03 ± 0.27 µM. Moreover, in series [3], the inhibition at 10 µM came to 83 ± 2.64% and inhibition was half-maximal at 2.32 ± 0.26 µM (IC50).

The molecule `COc1cccc(C(=O)/C=C/c2cc(F)cc(F)c2)c1` [Compound 24a, (E)-3-(3,5-Difluorophenyl)-1-(3-methoxyphenyl)prop-2-en-1-one] had a melting point of 95.2 to 97.2 °C. Moreover, the inhibition at 10 µM in series [1] worked out at 3.12 ± 5.02%. The inhibition at 10 µM in series [3] is 37.1 ± 7.65%.

The molecule `COc1ccc(C(=O)/C=C/c2cc(F)cc(F)c2)cc1` [Compound 25a, (E)-3-(3,5-Difluorophenyl)-1-(4-methoxyphenyl)prop-2-en-1-one] displayed a melting point of 154.3 to 155 °C. Further, in series [1], the inhibition at 10 µM was determined as 78.2 ± 9.5% and it took 4.7 ± 0.6 µM to reach half-maximal inhibition (IC50). In addition, the inhibition at 10 µM in series [3] worked out at 20.9 ± 3.64%.

The molecule `CC(C)(C)C(=O)/C=C/c1ccc2ccccc2c1` [Compound 26, (E)-4,4-Dimethyl-1-(naphthalen-2-yl)pent-1-en-3-one] gave a melting point of 117 to 119 °C. Moreover, the inhibition at 10 µM in series [1] is 10.6 ± 3.34%. Further, the “Induction of elastase release” value in series [2] is listed as “induced elastase release”.

Molecule `O=C(/C=C/c1ccc2ccccc2n1)c1ccccc1` [Compound 28, (E)-1-Phenyl-3-(quinolin-2-yl)prop-2-en-1-one] returned a melting point of 118 to 120 °C. In series [1], the inhibition at 10 µM is 106 ± 1.73% and the 50% inhibitory concentration (IC50) was found to be 1.73 ± 0.07 µM. In series [3], the inhibition at 10 µM amounted to 99.1 ± 7.32% and the IC50 was 2.17 ± 0.3 µM.

The molecule `CCOc1ccccc1C(=O)/C=C/c1ccc(-c2ccccc2)cc1` [Compound 30, (E)-3-([1,1′-Biphenyl]-4-yl)-1-(2-ethoxyphenyl)prop-2-en-1-one] had a melting point of 98 to 99 °C. The inhibition at 10 µM in series [1] worked out at 8.69 ± 2.43%. Besides, the inhibition at 10 µM in series [3] turned out to be 15.8 ± 2.57%.

The inhibition is the change of the read-out against control, counted positive when it falls. What is called melting point is the temperature of the solid-liquid transition. By IC50 is commonly meant the concentration at which inhibition is half-maximal. A low value points to higher potency.
